Laboratory results as given in ChEMBL document CHEMBL4387792, “Cytotoxic and Antibacterial Cervinomycins B1-4 from a Streptomyces Species” (J Nat Prod, 2019).
Values after ≈ are worked out from the molar mass of the structure shown. Active and inactive are the calls of the source. The calls are words filed in the database; no cut-off is given here.

Key:
Staphylococcus aureus [1] = experiment: Antibacterial activity against methicillin-sensitive Staphylococcus aureus 15 assessed as prevention of visible bacterial growth incubated for 18 hrs by broth dilution method; format: functional, organism-based
Escherichia coli [2] = experiment: Antibacterial activity against extended-spectrum beta-lactamase non-producing Escherichia coli ATCC 25922 assessed as prevention of visible bacterial growth incubated for 18 hrs by broth dilution method; format: functional, organism-based
SW1990 = experiment: Cytotoxicity against human SW1990 cells incubated for 72 hrs by MTT assay; format: functional, cell-based; conditions: SW1990, 72 h
PC-3 = experiment: Cytotoxicity against human PC3 cells incubated for 72 hrs by MTT assay; format: functional, cell-based; conditions: PC-3, 72 h
NCI-H1299 = experiment: Cytotoxicity against human NCI-H1299 cells incubated for 72 hrs by MTT assay; format: functional, cell-based; conditions: NCI-H1299, 72 h
Staphylococcus aureus [3] = experiment: Antibacterial activity against methicillin-resistant Staphylococcus aureus ATCC 33591 assessed as prevention of visible bacterial growth incubated for 18 hrs by broth dilution method; format: functional; conditions: ATCC 33591, 18 h
Staphylococcus aureus [4] = experiment: Antibacterial activity against methicillin-resistant Staphylococcus aureus 16-30 assessed as prevention of visible bacterial growth incubated for 18 hrs by broth dilution method; format: functional; conditions: 16-30, 18 h
Enterococcus faecalis [5] = experiment: Antibacterial activity against vancomycin-resistant Enterococcus faecalis ATCC 51299 assessed as prevention of visible bacterial growth incubated for 18 hrs by broth dilution method; format: functional; conditions: ATCC 51299, 18 h
Enterococcus faecalis [6] = experiment: Antibacterial activity against vancomycin-resistant Enterococcus faecalis ATCC 51575 assessed as prevention of visible bacterial growth incubated for 18 hrs by broth dilution method; format: functional; conditions: ATCC 51575, 18 h
Enterococcus faecium [7] = experiment: Antibacterial activity against vancomycin-resistant Enterococcus faecium ATCC 700221 assessed as prevention of visible bacterial growth incubated for 18 hrs by broth dilution method; format: functional; conditions: ATCC 700221, 18 h
Enterococcus faecium [8] = experiment: Antibacterial activity against vancomycin-resistant Enterococcus faecium 12-1 assessed as prevention of visible bacterial growth incubated for 18 hrs by broth dilution method; format: functional; conditions: 12-1, 18 h
[9] = tested on: Staphylococcus epidermidis; experiment: Antibacterial activity against methicillin-sensitive Staphylococcus epidermidis ATCC 12228 assessed as prevention of visible bacterial growth incubated for 18 hrs by broth dilution method; format: functional, organism-based
[10] = tested on: Staphylococcus epidermidis; experiment: Antibacterial activity against methicillin-sensitive Staphylococcus epidermidis 16-4 assessed as prevention of visible bacterial growth incubated for 18 hrs by broth dilution method; format: functional, organism-based
[11] = tested on: Staphylococcus epidermidis; experiment: Antibacterial activity against methicillin-resistant Staphylococcus epidermidis 16-5 assessed as prevention of visible bacterial growth incubated for 18 hrs by broth dilution method; format: functional, organism-based
Staphylococcus aureus [12] = experiment: Antibacterial activity against methicillin-sensitive Staphylococcus aureus ATCC 29213 assessed as prevention of visible bacterial growth incubated for 18 hrs by broth dilution method; format: functional, organism-based
Staphylococcus aureus [13] = experiment: Antibacterial activity against methicillin-sensitive Staphylococcus aureus 16-1 assessed as prevention of visible bacterial growth incubated for 18 hrs by broth dilution method; format: functional, organism-based
Enterococcus faecalis [14] = experiment: Antibacterial activity against vancomycin-sensitive Enterococcus faecalis ATCC 29212 assessed as prevention of visible bacterial growth incubated for 18 hrs by broth dilution method; format: functional, organism-based
Enterococcus faecalis [15] = experiment: Antibacterial activity against vancomycin-sensitive Enterococcus faecalis 16-6 assessed as prevention of visible bacterial growth incubated for 18 hrs by broth dilution method; format: functional, organism-based
Enterococcus faecium [16] = experiment: Antibacterial activity against vancomycin-sensitive Enterococcus faecium 16-5 assessed as prevention of visible bacterial growth incubated for 18 hrs by broth dilution method; format: functional, organism-based
Escherichia coli [17] = experiment: Antibacterial activity against extended-spectrum beta-lactamase producing Escherichia coli ATCC 35218 assessed as prevention of visible bacterial growth incubated for 18 hrs by broth dilution method; format: functional, organism-based
Klebsiella pneumoniae [18] = experiment: Antibacterial activity against extended-spectrum beta-lactamase producing Klebsiella pneumoniae 700603 assessed as prevention of visible bacterial growth incubated for 18 hrs by broth dilution method; format: functional, organism-based
Klebsiella pneumoniae [19] = experiment: Antibacterial activity against extended-spectrum beta-lactamase non-producing Klebsiella pneumoniae 16-2 assessed as prevention of visible bacterial growth incubated for 18 hrs by broth dilution method; format: functional, organism-based
Pseudomonas aeruginosa = experiment: Antibacterial activity against Pseudomonas aeruginosa ATCC 27853 assessed as prevention of visible bacterial growth incubated for 18 hrs by broth dilution method; format: functional, organism-based
[20] = tested on: Acinetobacter calcoaceticus; experiment: Antibacterial activity against Acinetobacter calcoaceticus ATCC 19606 assessed as prevention of visible bacterial growth incubated for 18 hrs by broth dilution method; format: functional, organism-based
Enterobacter cloacae = experiment: Antibacterial activity against Enterobacter cloacae ATCC 43560 assessed as prevention of visible bacterial growth incubated for 18 hrs by broth dilution method; format: functional, organism-based
Shigella flexneri = experiment: Antibacterial activity against Shigella flexneri ATCC 12022 assessed as prevention of visible bacterial growth incubated for 18 hrs by broth dilution method; format: functional, organism-based

Row | SMILES | Activity (Staphylococcus aureus [1]) | Activity (Escherichia coli [2]) | IC50 (SW1990) | IC50 (PC-3) | IC50 (NCI-H1299) | MIC (Staphylococcus aureus [3]) | MIC (Staphylococcus aureus [4]) | MIC (Enterococcus faecalis [5]) | MIC (Enterococcus faecalis [6]) | MIC (Enterococcus faecium [7]) | MIC (Enterococcus faecium [8]) | Activity [9] | Activity [10] | Activity [11] | Activity (Staphylococcus aureus [12]) | Activity (Staphylococcus aureus [13]) | Activity (Enterococcus faecalis [14]) | Activity (Enterococcus faecalis [15]) | Activity (Enterococcus faecium [16]) | Activity (Escherichia coli [17]) | other results
1 | COc1cc2oc3c(c(=O)c2cc1OC)C(=O)C1=C(CCc2cc4c(c(O)c21)C(=O)N1CCO[C@]1(C)C4)C3=O | inactive | inactive | 5.4 nM | 3.5 nM | 2 nM | 0.06 µg/mL (≈ 0.113 µM) | 0.12 µg/mL (≈ 0.227 µM) | 0.12 µg/mL (≈ 0.227 µM) | 0.12 µg/mL (≈ 0.227 µM) | 0.06 µg/mL (≈ 0.113 µM) | 0.12 µg/mL (≈ 0.227 µM) | inactive | inactive | inactive | inactive | inactive | inactive | inactive | inactive | inactive | Activity (Klebsiella pneumoniae [18]): inactive; Activity (Klebsiella pneumoniae [19]): inactive; Activity (Pseudomonas aeruginosa): inactive; Activity [20]: inactive; Activity (Enterobacter cloacae): inactive; Activity (Shigella flexneri): inactive
2 | COc1cc2oc3c(O)c4c(c(O)c3c(=O)c2cc1O)-c1c(cc2c(c1O)C(=O)N1CCO[C@]1(C)C2)CC4 | inactive | inactive | 0.8 nM | 4.4 nM | 49.1 nM | 0.016 µg/mL (≈ 0.0309 µM) | 0.008 µg/mL (≈ 0.0155 µM) | 0.016 µg/mL (≈ 0.0309 µM) | 0.016 µg/mL (≈ 0.0309 µM) | 0.03 µg/mL (≈ 0.058 µM) | 0.03 µg/mL (≈ 0.058 µM) | inactive | inactive | inactive | inactive | inactive | inactive | inactive | inactive | inactive | Activity (Klebsiella pneumoniae [18]): inactive; Activity (Klebsiella pneumoniae [19]): inactive; Activity (Pseudomonas aeruginosa): inactive; Activity [20]: inactive; Activity (Enterobacter cloacae): inactive; Activity (Shigella flexneri): inactive
3 | C[C@H]1COc2c(N3CCN(C)CC3)c(F)cc3c(=O)c(C(=O)O)cn1c23.C[C@H]1COc2c(N3CCN(C)CC3)c(F)cc3c(=O)c(C(=O)O)cn1c23.O [LEVOFLOXACIN] |  |  |  |  |  | 0.12 µg/mL | 32 µg/mL | 1 µg/mL | 2 µg/mL | 128 µg/mL | 128 µg/mL |  |  |  |  |  |  |  |  |  | 
4 | COc1cc2oc3c(c(=O)c2cc1OC)C(=O)c1c(ccc2cc4c(c(O)c12)C(=O)N1CCO[C@]1(C)C4)C3=O |  |  | 704 nM | 1310 nM | 252 nM | 0.5 µg/mL (≈ 0.948 µM) | 0.5 µg/mL (≈ 0.948 µM) | 0.12 µg/mL (≈ 0.227 µM) | 0.12 µg/mL (≈ 0.227 µM) | 1 µg/mL (≈ 1.9 µM) | 1 µg/mL (≈ 1.9 µM) |  |  |  |  |  |  |  |  |  | 
5 | COc1cc2oc3c(O)c4c(c(O)c3c(=O)c2cc1OC)-c1c(cc2c(c1O)C(=O)N1CCO[C@]1(C)C2)CC4 | inactive | inactive | 2.2 nM | 2.2 nM | 0.1 nM | 0.06 µg/mL (≈ 0.113 µM) | 0.06 µg/mL (≈ 0.113 µM) | 0.06 µg/mL (≈ 0.113 µM) | 0.12 µg/mL (≈ 0.226 µM) | 0.12 µg/mL (≈ 0.226 µM) | 0.03 µg/mL (≈ 0.0564 µM) | inactive | inactive | inactive | inactive | inactive | inactive | inactive | inactive | inactive | Activity (Klebsiella pneumoniae [18]): inactive; Activity (Klebsiella pneumoniae [19]): inactive; Activity (Pseudomonas aeruginosa): inactive; Activity [20]: inactive; Activity (Enterobacter cloacae): inactive; Activity (Shigella flexneri): inactive
6 | COc1cc2oc3c(c(=O)c2cc1O)C(=O)C1=C(CCc2cc4c(c(O)c21)C(=O)N1CCO[C@]1(C)C4)C3=O | inactive | inactive | 20.9 nM | 34.3 nM | 107 nM | 0.25 µg/mL (≈ 0.485 µM) | 0.12 µg/mL (≈ 0.233 µM) | 0.25 µg/mL (≈ 0.485 µM) | 0.5 µg/mL (≈ 0.97 µM) | 0.5 µg/mL (≈ 0.97 µM) | 0.25 µg/mL (≈ 0.485 µM) | inactive | inactive | inactive | inactive | inactive | inactive | inactive | inactive | inactive | Activity (Klebsiella pneumoniae [18]): inactive; Activity (Klebsiella pneumoniae [19]): inactive; Activity (Pseudomonas aeruginosa): inactive; Activity [20]: inactive; Activity (Enterobacter cloacae): inactive; Activity (Shigella flexneri): inactive
